These results are taken from patent US20130142847A1, “S-ADENOSYLMETHIONINE FORMULATIONS WITH ENHANCED BIOAVAILABILITY” (Methylation Sciences, Inc., priority 2009, published 2013).

The term Papp A→B denotes the apparent permeability from the apical to the basolateral side of a cell layer. Usually Papp B→A stands for how fast a substance crosses the layer from the basolateral side. As usually defined, the Papp is the rate of passage across a membrane or cell layer, normalised by area and donor concentration.

Data set [1] concerns Caco-2 cell monolayers. As to the kind of experiment: 24 hour resistance recovery test (Caco-2 cell recovery post treatment). The data set is classed as cell-based, human. As for the experimental part: As part of these in vitro studies, the degree of Caco-2 cell recovery (as observed by degree of permeability and cell attachment 24 hours post treatment with each tight junction modulator) was also investigated. This 24 hour resistance recovery test is an indirect measure of epithelial cell disruption and data supporting a trend toward less in vitro disruption may be associated with less impact in vivo.

The nature of data set [2]: Single dose pharmacokinetic study of enteric coated SAMe capsules in fasted male beagle dogs. It counts as in vivo. The conditions noted are these: for effect on in vivo bioavailability of SAMe / amount of SAMe in the plasma versus control: beagle dogs, capsule 200 mg SAMe ion + 200 mg enhancer vs control capsule, result in words. As for the experimental part:
Following collection, samples were centrifuged (at 4° C.) to separate the plasma fraction from the blood cells. The resulting plasma fraction was recovered and stored frozen (at −80° C.) using polypropylene tubes pending bioanalytical analysis.
This method employs stable-isotope dilution liquid chromatography-electrospray […] tandem mass spectrometry (LC-ESI-MS/MS) to determine SAMe and SAH in plasma.

Data set [3] relates to Caco-2 cell monolayers. In words: Caco-2 permeability of SAMe in the presence of tight junction modulators (Examples 3a, 3c). The note with it: for effect on SAMe uptake / SAMe permeability: in the presence of the agent, result in words; for change in SAMe permeability across the Caco-2 cell monolayer: sulfobetaine 0.15 mM as the enhancer; for Permeability Coefficient: SAMe permeability; for Fold Transport Increase: SAMe transport vs SAMe control. (Caco-2 cells form a polarised layer with tight junctions and transporters.)
Description: (§1) Similar to the description above, the Caco-2 cell line was obtained from ATCC and grown in DMEM (Sigma-Aldrich) supplemented with 20% FBS (Sigma-Aldrich), 100 uM non-essential amino acids (Sigma-Aldrich) and 2 mM L-glutamine (Sigma-Aldrich). The Caco-2 cells grown in tissue culture flasks were trypsinized, suspended in medium, and the suspensions were applied to wells of a collagen-coated BioCoat Cell Environment in 24-well format at 24,500 cells per well. The cells were allowed to grow and differentiate for three weeks, feeding at 2-day intervals.
(§2) For apical to basolateral permeability, a 2 mM aqueous solution of SAMe tosylate disulfate was added to the apical side and the amount of permeation was determined on the basolateral side. The apical and basolateral side buffers contained modified Transport Buffer (25 mM HEPES, 1× Hank's Balanced Salt Solution (Sigm-Aldrich)) pH 7.4. Caco-2 cells were incubated with these buffers for 2 hours, and the receiver side buffer was removed for analysis by LC/MS/MS. The receiver, donor, and dosing solution were diluted with an equal volume of 0.2 N HCl immediately after the assay in order to increase SAMe stability. Donor and dosing solution were diluted 100-fold to ensure that the concentration was within the linear range of the assay.
(§3) The permeability (Papp) of SAMe is calculated using the following formula:
(§4) Where dQ/dt is the rate of permeation, C0 is the initial concentration of test agent, and A is the area of the monolayer.
(§5) In vitro Caco-2 testing was performed as detailed above using 0.15 mM of sulfobetaine-10, sulfobetaine-12, sulfobetaine-14, sulfobetaine-16, or sulfobetaine-18 as the enhancer.

For data set [4], the system named is Caco-2 cell monolayers. As to the kind of experiment: Permeability of SAMe across Caco-2 cell monolayers (Example 3). The note with it: for Papp_a-b Apical to Basal: apical to basolateral; for Papp_a-b Apical to Basal / Papp_b-a Basal to Apical: HBSS pH 7.4, 120 minute incubation, SAMe salt 2 mM; for Papp_b-a Basal to Apical: basolateral to apical.
Description: (§6) In these models, pure cell lines are grown on a semi-permeable membrane. Drug formulations are placed on the apical or basolateral side of the cell monolayer and transport is determined via measurement of drug concentrations on the other side of the membrane.
(§7) The Caco-2 cell line utilized here was from the American Type Culture Collection (ATCC). Caco-2 cells are grown in Dulbecco's modified Eagle's medium (DMEM, Gibco) supplemented with 20% FBS (fetal bovine serum, Gibco), 100 uM non-essential amino acids (NEAA, Gibco) and 2 mM L-glutamine (Gibco). A Beckton Dickinson BIOCOAT® HTS Caco-2 Assay System Kit is used resulting in 6.6×10^5 cells/cm^2 seeding density (BIOCOAT is a registered trademark of Collaborative Biomedical Products, Inc., Bedford, Mass., USA). The cells used in transport studies are grown for 3 days before the experiments. The culturing conditions are 37° C. in an atmosphere of 5% CO2 and 100% humidity.
(§8) For permeability across Caco-2 cell monolayers, the transport medium used was Hank's Buffered Salt Solution (HBSS; purchased from Gibco) containing D-glucose, and HEPES pH adjusted to 7.4. A 2 mM aqueous solution of either SAMe tosylate disulfate or SAMe 1,4 butanedisulfonate was added on the apical or basolateral side according to the manufacturer's procedure for the Caco-2 kit. Samples were measured after 120 minute incubation by liquid chromatography-mass spectrometry (LC/MS). The integrity of the monolayers was monitored using Lucifer Yellow Assay. […] Propranolol is a high permeability marker and was utilized as a positive control for a readily absorbed molecule.
Test in data set [5]: as above
The note with it: human, Caco-2, pH 7.4.
Description: as §6, §7, §8

Data set [6] is described as follows: Caco-2 permeability of SAMe in the presence of tight junction modulators (Examples 3a, 3c). The conditions noted are these: human, Caco-2, pH 7.4, Permeability Coefficient, permeability control compound itself, 50 uM.
Description: as §1, §2, §3, §4, §5
Data set [7] is described as follows: Plasma SAMe metabolites after 1600 mg of a commercially available SAMe formulation. The data set is classed as in vivo. The conditions noted are these: all time points after 1600 mg dose of commercially available SAMe; seven subjects. How it is done:
This finding is in contrast to the general dogma surrounding SAMe metabolism which continually reports that low SAMe bioavailability is due to active metabolism by the liver upon administration. […] In order to test this theory, the inventors measured the level of S-adenosyl homocysteine (SAH), the primary metabolite of SAMe, at various time points after administration of a 1600 mg dose of a commercially available SAMe formulation.

The test system of data set [8] is Caco-2 cells. The note with it: McMillan et al. 2005; cited from earlier work.
For data set [9] the following is noted: literature reports; cited from earlier work.
The test system of data set [10] is cultured rat hepatocytes. The conditions noted are these: McMillan et al. 2005; cited from earlier work.
The mark [11] stands for this setting: plasma, fasted male beagle dogs, single oral enteric coated capsule, 200 mg SAMe ion with or without 200 mg enhancer.

Regarding `CCCCCCCCCCCCCCCC[N+](C)(C)CCCS(=O)(=O)[O-]` [3-(N,N-Dimethylpalmitylammonio)propanesulfonate], the “TEER Resist. 24 hour post assay” value in data set [1] (enhancer 0.6 mM) is 33 ohms. In data set [2], the “effect on in vivo bioavailability of SAMe / amount of SAMe in the plasma versus control” value is “significant increase in the amount of SAMe present in the plasma”. Further, in [3], the “effect on SAMe uptake / SAMe permeability” value is reported as “marked increase in SAMe permeability” and the “change in SAMe permeability across the Caco-2 cell monolayer” value (from here on “change”) is reported as “at least a five-fold increase”.
Take `CCCCCCCCCCCCCCCC(=O)OC(CC(=O)O)C[N+](C)(C)C.[Cl-]` (stereo not drawn) [Palmitoyl Carnitine Chloride (PCC), Palmitoyl carnitine chloride]: the “Permeability Coefficient” value in [3] (test article 0.15 mM, run 2) worked out at 0.78 ×10⁻⁶ cm/s; in data set [3] (test article 0.15 mM, run 4), 5 ×10⁻⁶ cm/s; in [3] (test article 0.4 mM, run 4), 10 ×10⁻⁶ cm/s. Also, the “effect on SAMe uptake / SAMe permeability” value in data set [3] is “marked increase in SAMe permeability”.
On to `CC(C)NCC(O)COc1cccc2ccccc12` (stereo not drawn) [Propranolol], for which, in [4], the “Papp_a-b Apical to Basal” value is 22.4 ×10⁻⁶ cm/s and the “Papp_b-a Basal to Apical” value was found to be 18.4 ×10⁻⁶ cm/s. In addition, in data set [5], the Papp A→B at 120 min amounted to 22.4 ×10⁻⁶ cm/s and the basolateral-to-apical permeability (Papp B→A) at 120 min came out at 18.4 ×10⁻⁶ cm/s.
On to `CNC(=C[N+](=O)[O-])NCCSCc1ccc(CN(C)C)o1` [Ranitidine, reference compound], for which the Papp at 2 h, 50 uM in data set [6] (run 2) is 0.91 ×10⁻⁶ cm/s; in data set [6] (run 3) it was 0.91 ×10⁻⁶ cm/s; in data set [6] (run 4) it was 1 ×10⁻⁶ cm/s.
As for `Nc1ncnc2c1ncn2[C@@H]1O[C@H](CSCC[C@H](N)C(=O)O)[C@@H](O)[C@H]1O` [SAH, S-adenosyl homocysteine], the “plasma concentration of SAH relative to SAMe” value in data set [7] is on record as “significantly lower than the level of SAMe itself”.
For the compound `C[S+](CC[C@H](N)C(=O)[O-])C[C@H]1O[C@@H](n2cnc3c(N)ncnc32)[C@H](O)[C@@H]1O.O=S(=O)(O)CCCCS(=O)(=O)O` (stereo partly drawn) [SAMe 1,4 butanedisulfonate], in data set [4], the “Papp_a-b Apical to Basal” value was determined as 0.5 ×10⁻⁶ cm/s and the “Papp_b-a Basal to Apical” value turned out to be 0.6 ×10⁻⁶ cm/s.
`C[S+](CC[C@H](N)C(=O)O)C[C@H]1O[C@@H](n2cnc3c(N)ncnc32)[C@H](O)[C@@H]1O` (stereo partly drawn) [SAMe, S-adenosyl-L-methionine]: the “fold increase in SAMe permeability” value in data set [4] (calcium-free buffer) is reported as 13-24 fold. Also, in [8], the “transport through a monolayer of Caco-2 cells” value is “poorly transported”. The “SAMe bioavailability when orally administered” value in [9] is recorded as “less than 5%”. For the same compound, in [10], the “absorption by cultured rat hepatocytes” value was “poorly absorbed”.
As for `CCCCCCCCCC(=O)[O-].[Na+]` [Sodium Caprate], the “effect on in vivo bioavailability of SAMe / amount of SAMe in the plasma versus control” value in data set [2] is recorded as “did not enhance the in vivo bioavailability of SAMe”.
Consider `CCCCCCCC[N+](C)(C)CCCS(=O)(=O)[O-]` [Sulfobetaine-8], for which, in [1] (enhancer 0.15 mM), the “TEER Resist. 24 hour post assay” value came out at 1553 ohms. In addition, in data set [3] (enhancer 0.15 mM (Table 7)), the “Permeability Coefficient” value amounted to 0.218 ×10⁻⁶ cm/s and the “Fold Transport Increase” value is reported as 1.2X.
In the case of `CCCCCCCCCCCC[N+](C)(C)CCCS(=O)(=O)[O-]` [Sulfobetaine-12], the “TEER Resist. 24 hour post assay” value in [1] (enhancer 0.15 mM) came out at 1923 ohms. Further, in [3] (enhancer 0.15 mM (Table 7)), the “Permeability Coefficient” value is 0.257 ×10⁻⁶ cm/s and the “Fold Transport Increase” value stood at 1.4X. Moreover, the “change” value in [3] is given as “did not improve SAMe permeability”.
As to `CCCCCCCCCCCCCC[N+](C)(C)CCCS(=O)(=O)[O-]` [Sulfobetaine-14], the “TEER Resist. 24 hour post assay” value in data set [1] (enhancer 0.15 mM) is on record as 1892 ohms. In addition, the “effect on in vivo bioavailability of SAMe / amount of SAMe in the plasma versus control” value in data set [2] is “significant increase in the bioavailability of SAMe”. In addition, in data set [2] (setting [11]), the “SAMe AUC” value came to 10226 ng·h/mL and the “SAMe Cmax” value turned out to be 4148 ng/mL. Further, in data set [3] (enhancer 0.15 mM (Table 7)), the “Permeability Coefficient” value is 0.654 ×10⁻⁶ cm/s and the “Fold Transport Increase” value was 5.0X. Moreover, the “change” value in data set [3] was “at least a five-fold increase”.
Regarding `CCCCCCCCCCCCCCCCCC[N+](C)(C)CCCS(=O)(=O)[O-]` [Sulfobetaine-18], the “TEER Resist. 24 hour post assay” value in data set [1] (enhancer 0.15 mM) came to 292 ohms. In addition, in data set [3] (enhancer 0.15 mM (Table 7)), the “Permeability Coefficient” value was determined as 0.649 ×10⁻⁶ cm/s and the “Fold Transport Increase” value turned out to be 5.0X. Besides, the “change” value in [3] is listed as “at least a five-fold increase”.
On to `CC(=O)CC(c1ccccc1)c1c(O)c2ccccc2oc1=O` (stereo not drawn) [Warfarin, reference compound], for which the Papp at 2 h, 50 uM in data set [6] (run 2) amounted to 48.8 ×10⁻⁶ cm/s; in [6] (run 3) it was 49 ×10⁻⁶ cm/s; in [6] (run 4) it was 46.6 ×10⁻⁶ cm/s.
On to `CCCCCCCCCC[N+](C)(C)CCCS(=O)(=O)[O-]` [sulfobetaine-10], for which the “change” value in data set [3] is “did not improve SAMe permeability”.
